pIC50: −log10 of the molar value.
What was measured:
BRD2 (His-Brd2(60-472)) = BRD2 (His-Brd2(60-472)) (Homo sapiens (Human), UniProt P25440); test: TR-FRET in-vitro binding assay for BRD2; settings: single determination or n ≧ 2 independent determinations, read-out: Biochemical IC50 BRD2
Method in brief: (§1)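 Compounds were serially diluted over eight concentrations and added to wells. TR-FRET signal was then measured.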

THP-1 cells = test: Cell growth inhibition assay (CellTiter-Glo), THP-1; settings: for GI50: Homo sapiens, THP-1, read-out: THP-1 GI50; for THP-1 TGI: THP-1 cells, total growth inhibition, CellTiter-Glo;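 on all read-outs here: viability read as cellular ATP luminescence after 4 days, 3-fold dilution series from 10 µM, DMSO vehicle-treated cells taken as 100%, cell-free medium wells as −100%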
MV-4-11 cells = test: Cell growth inhibition assay (CellTiter-Glo), MV-4-11; settings: for GI50: Homo sapiens, MV4-11, read-out: MV-4-11 GI50; for MV-4-11 TGI: MV-4-11 cells, total growth inhibition, CellTiter-Glo;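 on all read-outs here: cellular ATP luminescence after 4 days, 3-fold dilution series from 10 µM top dose, vehicle (0.1% DMSO) set to 100%, cell-free medium set to −100%, day 0 corrected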
K-562 cells = test: Cell growth inhibition assay (CellTiter-Glo), K-562; settings: for GI50: Homo sapiens, K562, read-out: K-562 GI50; for K-562 TGI: K-562 cells, total growth inhibition, CellTiter-Glo;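 on all read-outs here: cellular ATP measured by luminescence after 4 days of exposure, 3-fold dilution series from 10 µM, DMSO vehicle-treated cells define 100%, cell-free medium wells −100%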
BRD4 (His-Brd4(44-477)) = BRD4 (His-Brd4(44-477)) (Homo sapiens (Human), UniProt O60885); test: TR-FRET in-vitro binding assay for BRD4; settings: single determination or n ≧ 2 independent determinations, read-out: Biochemical IC50 BRD4
Method in brief: as §1

BRD3 (His-Brd3(20-477)) = BRD3 (His-Brd3(20-477)) (Homo sapiens (Human), UniProt Q15059); test: TR-FRET in-vitro binding assay for BRD3; settings: single determination or n ≧ 2 independent determinations, read-out: Biochemical IC50 BRD3
Sequence of BRD3 (His-Brd3(20-477)) (Q15059 20-477): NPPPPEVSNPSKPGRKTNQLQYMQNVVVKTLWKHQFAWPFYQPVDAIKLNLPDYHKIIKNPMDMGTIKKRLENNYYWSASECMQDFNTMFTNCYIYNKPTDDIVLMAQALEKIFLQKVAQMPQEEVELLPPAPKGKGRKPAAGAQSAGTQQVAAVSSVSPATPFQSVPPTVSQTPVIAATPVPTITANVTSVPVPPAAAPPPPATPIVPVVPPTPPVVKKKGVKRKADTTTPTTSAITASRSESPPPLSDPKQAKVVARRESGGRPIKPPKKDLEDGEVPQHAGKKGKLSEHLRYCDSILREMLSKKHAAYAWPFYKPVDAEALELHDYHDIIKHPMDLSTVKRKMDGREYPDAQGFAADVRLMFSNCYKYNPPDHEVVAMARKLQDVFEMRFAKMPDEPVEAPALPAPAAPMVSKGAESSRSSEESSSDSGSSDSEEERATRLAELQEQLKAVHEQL
Method in brief: as §1

[1] = target: CREBBP bromodomain (His-CREBBP(1081-1197)) (Homo sapiens (Human), UniProt Q92793); test: AlphaScreen in-vitro binding assay for CREBBP; settings: single determination or n ≧ 2 independent determinations, read-out: Biochemical IC50 CREBBP
Sequence of CREBBP bromodomain (His-CREBBP(1081-1197)) (Q92793 1081-1197): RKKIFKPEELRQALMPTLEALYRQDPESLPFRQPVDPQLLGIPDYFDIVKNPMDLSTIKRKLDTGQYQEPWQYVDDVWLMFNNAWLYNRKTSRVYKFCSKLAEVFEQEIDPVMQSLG
Method in brief: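 Reactions at 30 °C for 35 min, then Ni-chelate acceptor and streptavidin donor beads in HEPES pH 7.5, NaCl, Tween20, BSA, 60 min at room temperature. Eight-point compound series; IC50 by non-linear regression of percent inhibition.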

Sequence of BRD2 (His-Brd2(60-472)) (P25440 60-472): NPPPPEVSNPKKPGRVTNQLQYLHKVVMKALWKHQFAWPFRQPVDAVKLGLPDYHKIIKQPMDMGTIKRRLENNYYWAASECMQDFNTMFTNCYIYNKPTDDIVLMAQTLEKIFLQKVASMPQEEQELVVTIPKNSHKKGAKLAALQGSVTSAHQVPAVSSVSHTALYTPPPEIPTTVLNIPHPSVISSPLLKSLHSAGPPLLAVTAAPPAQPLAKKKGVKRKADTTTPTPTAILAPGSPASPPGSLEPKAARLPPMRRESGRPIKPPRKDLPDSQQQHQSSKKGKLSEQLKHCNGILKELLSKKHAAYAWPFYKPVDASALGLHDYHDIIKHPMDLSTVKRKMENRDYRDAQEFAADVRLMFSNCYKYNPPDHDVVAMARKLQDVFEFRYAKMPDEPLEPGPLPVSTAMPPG

Row | Structure (SMILES) | pIC50 (BRD2 (His-Brd2(60-472))) | GI50 (THP-1 cells) | THP-1 TGI (THP-1 cells) | GI50 (MV-4-11 cells) | MV-4-11 TGI (MV-4-11 cells) | GI50 (K-562 cells) | K-562 TGI (K-562 cells) | pIC50 (BRD4 (His-Brd4(44-477))) | pIC50 (BRD3 (His-Brd3(20-477))) | pIC50 [1]
1 | COc1cc(N2C(=O)c3nc(C4=CCN(C)CC4)n(C(C)C)c3C2c2ccc(Cl)cc2)cc2c1nnn2C (centres unmarked) [Example 73] | 6.82 | 93.6 nM | 254.5 nM | 30.6 nM | 52.7 nM | 300 nM | >10000 nM | 7.24 | 7.03 | 4.79
2 | Cc1cc(N2C(=O)c3nc(C)n(C(C)C)c3[C@H]2c2ccc(Cl)cc2)cn2c(C(F)F)nnc12 [Example 146, (R)-6-(4-chlorophenyl)-5-(3-(difluoromethyl)-8-methyl-[1,2,4]triazolo[4,3-a]pyridin-6-yl)-1-isopropyl-2-methyl-5,6-dihydropyrrolo[3,4-d]imidazol-4(1H)-one] | 7.70 | 11 nM | 29.75 nM | 9.57 nM | 15.05 nM | 46.9 nM | >10000 nM | > 7.96 | 7.92 | < 4.43
3 | CCCn1c(-c2cc(OC)ncc2F)nc2c1C(=O)N(c1cc(C)c(=O)n(C)c1)C2c1ccc(Cl)cc1 (centres unmarked) [Example 36, 6-(4-chlorophenyl)-5-(1,5-dimethyl-6-oxo-1,6-dihydropyridin-3-yl)-2-(5-fluoro-2-methoxypyridin-4-yl)-3-propyl-5,6-dihydropyrrolo[3,4-d]imidazol-4(3H)-one] | 6.79 | 115 nM | 235 nM | 59.8 nM | 104 nM | 250 nM | >10000 nM | 6.82 | 6.80 | 5.60
4 | Cc1cc(N2C(=O)c3nc(C4CCOCC4)n(C(C)C)c3[C@H]2c2ccc(Cl)cc2)nn2c(C)nnc12 [Example 102, (R)-6-(4-chlorophenyl)-5-(3,8-dimethyl-[1,2,4]triazolo[4,3-b]pyridazin-6-yl)-1-isopropyl-2-(tetrahydro-2H-pyran-4-yl)-5,6-dihydropyrrolo[3,4-d]imidazol-4(1H)-one] | 7.70 | 2.95 nM | 10.51 nM | 1.38 nM | 4.435 nM | 13.4 nM | >10000 nM | 7.82 | 7.77 | 4.76
5 | Cc1cc(N2C(=O)c3nc(C4CC4)n(C(C)C)c3C2c2ccc(Cl)cc2)cn(C)c1=O (centres unmarked) [Example 28, 6-(4-chlorophenyl)-2-cyclopropyl-5-(1,5-dimethyl-6-oxo-1,6-dihydropyridin-3-yl)-1-isopropyl-5,6-dihydropyrrolo[3,4-d]imidazol-4(1H)-one] | 6.98 | 208 nM | 384 nM | 97.9 nM | 136 nM | 908 nM | >10000 nM | 6.93 | 7.03 | 5.47
6 | COc1ncccc1-c1nc2c(n1C(C)C)[C@@H](c1ccc(Cl)cc1)N(c1cc(C)c3nnc(C(F)F)n3n1)C2=O [Example 168, (R)-6-(4-chlorophenyl)-5-(3-(difluoromethyl)-8-methyl-[1,2,4]triazolo[4,3-b]pyridazin-6-yl)-1-isopropyl-2-(2-methoxypyridin-3-yl)-5,6-dihydropyrrolo[3,4-d]imidazol-4(1H)-one] | 7.77 | 5.65 nM | 18.9 nM | 2.99 nM | 7.7 nM | 30.8 nM | >10000 nM | > 7.96 | > 7.96 | < 4.43
7 | COc1ncccc1-c1nc2c(n1C(C)C)[C@@H](c1ccc(Cl)cc1)N(c1cc(C)c3nnc(C(F)F)n3c1)C2=O [Example 151, (R)-6-(4-chlorophenyl)-5-(3-(difluoromethyl)-8-methyl-[1,2,4]triazolo[4,3-a]pyridin-6-yl)-1-isopropyl-2-(2-methoxypyridin-3-yl)-5,6-dihydropyrrolo[3,4-d]imidazol-4(1H)-one] | 7.85 | 6.85 nM | 17.45 nM | 3.73 nM | 8.015 nM | 24.1 nM | >10000 nM | 7.96 | 7.85 | 4.86
8 | Cc1cc(N2C(=O)c3nc(C4=CCOC4)n(C(C)C)c3C2c2ccc(Cl)cc2)cn2c(CF)nnc12 (centres unmarked) [Example 92, 6-(4-chlorophenyl)-2-(2,5-dihydrofuran-3-yl)-5-(3-(fluoromethyl)-8-methyl-[1,2,4]triazolo[4,3-a]pyridin-6-yl)-1-isopropyl-5,6-dihydropyrrolo[3,4-d]imidazol-4(1H)-one] | 7.57 | 23.9 nM | 78.4 nM | 15.3 nM | 33.65 nM | 110 nM | >10000 nM | > 7.96 | 7.57 | 5.24
9 | Cc1cc(N2C(=O)c3nc(C4=CCN(C(=O)NC(C)(C)C)CC4)n(C(C)C)c3C2c2ccc(Cl)cc2)cn2c(C)nnc12 (centres unmarked) [Example 72, N-(tert-butyl)-4-(6-(4-chlorophenyl)-5-(3,8-dimethyl-[1,2,4]triazolo[4,3-a]pyridin-6-yl)-1-isopropyl-4-oxo-1,4,5,6-tetrahydropyrrolo[3,4-d]imidazol-2-yl)-5,6-dihydropyridine-1(2H)-carboxamide] | 7.64 | 222 nM | 746 nM | 45.8 nM | 96.9 nM | 1340 nM | >10000 nM | 7.92 | > 7.96 | 5.29
10 | COc1ccc(-c2nc3c(n2C(C)C)[C@@H](c2ccc(Cl)cc2)N(c2cc(OC)c4nnn(C)c4c2)C3=O)cn1 [Example 114, (R)-6-(4-chlorophenyl)-1-isopropyl-5-(4-methoxy-1-methyl-1H-benzo[d][1,2,3]triazol-6-yl)-2-(6-methoxypyridin-3-yl)-5,6-dihydropyrrolo[3,4-d]imidazol-4(1H)-one] | 7.06 | 118 nM | 300.5 nM | 77.7 nM | 158.5 nM | 268 nM | >10000 nM | 7.42 | 7.00 | 4.89
11 | COc1ncc(-c2nc3c([nH]2)C(c2ccc(Cl)cc2)N(c2cc(C)c4nnc(C)n4c2)C3=O)c(OC)n1 (centres unmarked) [Example 124, 6-(4-chlorophenyl)-2-(2,4-dimethoxypyrimidin-5-yl)-5-(3,8-dimethyl-[1,2,4]triazolo[4,3-a]pyridin-6-yl)-5,6-dihydropyrrolo[3,4-d]imidazol-4(1H)-one] | 7.03 | 66.3 nM | 134.5 nM | 56.2 nM | 96.75 nM | 257 nM | >10000 nM | 7.42 | 7.41 | 5.42

Source: patent publication US9890166B2, “Imidazopyrrolidine derivatives and their use in the treatment of disease” (NOVARTIS AG, priority 2013, dated 2018)
